The record followed here is patent US9243062B2, “Peptides for treatment and diagnosis of autoimmune disease” (priority 2005, dated 2016).

The test system of test [1] is human pancreatic α cells. The test can be described thus: Fluorescence microscopy: binding of biotinylated homodimer CDR peptides to human pancreatic α cells. Particulars: biotinylated homodimers; fluoresceinated antibiotin as second step reagent. Type of test: cell-based. Here is the method:
(§1) An N terminal cysteine was added to each of the hypervariable region sequences (CDR-L1-3 and CDR-H1-3, SEQ ID NOs:6 to 16) which were synthesised by Fmoc peptide synthesis and dimerised to form homodimers. Some of each of the homodimers was biotinylated; the biotinylated homodimers were then tested by fluorescence microscopy for their ability to bind to human pancreatic a cells (used as an indicator human tissue) by using fluoresceinated antibiotin as a second step reagent. […] The non-biotinylated homodimer peptides were then tested by ELISAs for their ability to bind to anti-TCR Vβ antibody and to cardiolipin as an indicator of phospholipids (Table 1).

A short description of test [2]: ELISA binding to cardiolipin as an indicator of phospholipids. The note with it: for Ratio Test/Control: cardiolipin vs ethyl alcohol control; for Optical density reading, ELISA, antigen cardiolipin: plate coated with cardiolipin in ethyl alcohol, tested against antibody or homodimer peptide, mean ± SD, three observations. Here is the method: as §1
On the technique in general: ELISA stands for enzyme-linked immunosorbent assay.

The test system of test [3] is anti-TCR Vβ antibody. The test is described as follows: ELISA binding to anti-TCR Vβ antibody. The note with it: plate coated with homodimer peptide; for Optical density reading, ELISA, antigen α-TCRVβ antibody: tested against α-TCR Vβ, mean ± SD, three observations; for Ratio Test/Control: α-TCRVβ antibody vs PBS/culture medium control. Here is the method:
as §1

Test [4] in a line: Phase IIb randomised double blind trial in type 2 diabetics after stopping antidiabetic medication. Type of test: in vivo, human. Here is the method:
31 subjects (21 males and 10 females) with type 2 diabetes mellitus on one or more oral antidiabetic medication(s) were entered into a randomised double blind study of 16 weeks duration. At day 01 all antidiabetic medication was stopped. Patients were randomised to either the placebo group (group C) or one of 3 treatment groups described as Groups A, B or D. All groups received a total of 4 IM injections spaced one week apart starting from day 01. The placebo group (8 subjects) received 1.2 ml of saline containing 0.1% alhydrogel. Group A (7 subjects) received 1.51 mg of a peptide according to the invention (designated as NDX-71 herein) in 1.2 ml saline containing 0.1% alhydrogel. Group B (8 subjects) received 0.86 mg NDX-71 in 1.2 ml saline containing 0.1% alhydrogel. Group D (8 subjects) received a mixture of 3 peptides of the invention (0.92 mg NDX-71, 0.68 mg C80 and 0.71 mg F90) in 1.2 ml saline containing 0.1% alhydrogel. Placebo and study medications were visibly identical. The NDX-71 peptide used in this example was the B71 peptide used in Example 6. The C80 and F90 peptides used in this example were the C80 and F90 peptides used in Example 6.
At regular intervals throughout the study period patients underwent blood tests for clinical safety and glycaemic efficacy parameters. […] Clinical safety parameters in all groups were unchanged from baseline. There were no adverse events reported in the study attributable to the test substances.

No end group written: not given here.

Consider “CDR-L3 (QQYNSYPLT; Protein Light chain HV3)”, for which the “ability to bind to human pancreatic α cells” value in test [1] is reported as “bound to the pancreatic α cells”. In test [2], the “Ratio Test/Control” value turned out to be 2.23 and the “Optical density reading, ELISA, antigen cardiolipin” value amounted to 0.254 ± 0.012. Also, in test [3], the “Optical density reading, ELISA, antigen α-TCRVβ antibody” value was 0.243 ± 0.008 and the “Ratio Test/Control” value stood at 1.74.
Taken in the same sequence, the figures for “CDR-H3: homodimer of CDR-H3 derived monomer peptides, each SEQ ID NO:10 (LRGLLPDY) plus an N terminal cysteine (SEQ ID NO:160) (chain 1 CLRGLLPDY; chain 2 CLRGLLPDY; cysteine pairing not given here; also: homodimer)” were “bound to the pancreatic α cells”, 2.16, 0.132 ± 0.009, 0.182 ± 0.009 and 2.00.
For the substance “NDX-71: homodimer of CDR-H2 derived monomer peptides, each SEQ ID NO:8 (NIYPSDSYTNYNQKFKD) plus an N terminal cysteine (SEQ ID NO:159) (chain 1 CNIYPSDSYTNYNQKFKD; chain 2 CNIYPSDSYTNYNQKFKD; cysteine pairing not given here; also: homodimer)”, the “ability to bind to human pancreatic α cells” value in test [1] is on record as “bound to the pancreatic α cells”. Moreover, the “glycaemic control after cessation of antidiabetic medication” value in test [4] (1.51 mg dose) was “able to maintain good glycaemic control”. Moreover, the “dose dependence of effect” value in test [4] (1.51 mg vs 0.86 mg) is “dose response effect”. In addition, the “HbA1c, treatment difference vs placebo (group C)” value in test [4] (21 male volunteers subset, high dose group A (1.51 mg), p<0.001) is “Statistically significant treatment differences”. Besides, the “corrected fructosamine, treatment difference vs placebo (group C)” value in test [4] (21 male volunteers subset, high dose group A (1.51 mg), p=0.001) was “Statistically significant treatment differences”. The “fasting glucose, treatment difference vs placebo (group C)” value in test [4] (21 male volunteers subset, high dose group A (1.51 mg), p=0.005) is “Statistically significant treatment differences”. The “mean HbA1c level” value in test [4] (baseline, high dose treatment group (1.51 mg NDX-71)) amounted to 6.3%. Further, in test [4] (day 113, high dose treatment group (1.51 mg NDX-71)), the “mean HbA1c level” value is 6.9%. In addition, the “HbA1c levels over time vs placebo group” value in test [4] (high dose treatment group (1.51 mg NDX-71), p=0.02) is “significantly different from the placebo group”. The “glycaemic control compared with placebo” value in test [4] (lower dose of 0.86 mg) is on record as “showed improvement as compared with placebo”. Moreover, in test [2], the “Ratio Test/Control” value is recorded as 2.40 and the “Optical density reading, ELISA, antigen cardiolipin” value amounted to 0.151 ± 0.020. Further, in test [3], the “Optical density reading, ELISA, antigen α-TCRVβ antibody” value was found to be 0.307 ± 0.018 and the “Ratio Test/Control” value is given as 1.83.
